# Assay results published in publication PMC7808747, “Design, synthesis, and in vitro evaluation of BP-1-102 analogs with modified hydrophobic fragments for STAT3 inhibition” (Journal of Enzyme Inhibition and Medicinal Chemistry, 2021).
# Entries after “also recorded” stand apart in the source; their conditions may differ.
# Key:
# [1] = tested on: human breast cancer MDA-MB-231 cell line; assay: Resazurin cytotoxicity assay, MDA-MB-231; format: cell-based; conditions: 24 h, resazurin assay; for cytotoxic effect in MDA-MB-231 (in words): 0, 5, 10, 20, 50 µM
# Protocol: (§1) The cells were treated with the compounds at concentrations 0, 5, 10, 20, and 50 µM for 24 h, and the cytotoxicity was estimated by the resazurin assay.
# To estimate IC50 of 6 and 14, MDA-MB-231 cells were treated with 1 (0, 2, 5, 10, 15, 20, 25, 30, 40, and 50 µM), 6 (0, 5, 10, 20, 25, 30, 40, 50, 70, and 100 µM), and 14 (0, 20, 40, 50, 60, 70, 80, 100, 150, and 200 µM) for 24 h.
# (§2) The resazurin reduction assay[34] was performed as described previously. Briefly, cells were seeded onto a 96-well plate (2000 cells per well) in hexaplicate and the following day treated with the tested compounds (dissolved in DMSO as 50 mM stock) in a concentration range as indicated. After 24 h, 200 μl of culture medium of each well was exchanged for 100 μl of resazurin (stock 30 mg/ml; Sigma, St. Louis, MO) diluted 10 times in the culture medium, and the cells were incubated at 37 °C for 1–3 h. Reading of fluorescence was done using an Envision reader (PerkinElmer, Waltham, MA). Absolute values of fluorescence were related to the values of control/untreated cells. To estimate the cytotoxic concentration (half maximal inhibitory concentration, IC50), log-scale data were processed in GraphPad Prism software (La Jolla, CA) using nonlinear fit curve.
# [2] = tested on: human breast adenocarcinoma MCF-7; assay: Resazurin cytotoxicity assay, MCF-7; conditions: Homo sapiens, MCF7, read-out: IC50±SD MCF-7
# Protocol: (§3) Furthermore, the cytotoxicity of compound 6 was compared to BP-1-102 (1) in human glioblastoma cell lines U-87 and T98 in concentration range 0–80 µM for 24 h using the crystal violet assay.
# as §2
# RPE-1 = assay: Resazurin assay, RPE-1 (Table 2); format: cell-based; conditions: Homo sapiens, resazurin assay (footnote a), read-out: IC50±SD RPE-1
# Protocol: The resazurin reduction assay[34] was performed as described previously[38]. Briefly, cells were seeded onto a 96-well plate (2000 cells per well) in hexaplicate and the following day treated with the tested compounds (dissolved in DMSO as 50 mM stock) in a concentration range as indicated. After 24 h, 200 μl of culture medium of each well was exchanged for 100 μl of resazurin (stock 30 mg/ml; Sigma, St. Louis, MO) diluted 10 times in the culture medium, and the cells were incubated at 37 °C for 1–3 h. Reading of fluorescence was done using an Envision reader (PerkinElmer, Waltham, MA). Absolute values of fluorescence were related to the values of control/untreated cells. To estimate the cytotoxic concentration (half maximal inhibitory concentration, IC50), log-scale data were processed in GraphPad Prism software (La Jolla, CA) using nonlinear fit curve.
# [3] = tested on: prostate carcinoma DU-145; assay: Resazurin cytotoxicity assay, DU-145; conditions: Homo sapiens, DU-145, read-out: IC50±SD DU-145
# Protocol: as §3, §2
# [4] = tested on: mouse lung TC-1 cancer cell line; assay: MTT cytotoxicity assay, TC-1; format: cell-based; conditions: 0–50 µM, 24 h
# Protocol: (§4) Cells were seeded at the density of 2000 cells per well (96-well F microplates; Nunc, Roskilde, Denmark). The following day, the tested compounds were added. In the next 24 h, MTT (3-(4,5-dimethylthiazol-2-yl)-2,5-diphenyltetrazolium bromide) was added. After 6 h, DMF (dimethylformamide) was added, and after additional 24 h, absorbance was measured at 560 nm by a microplate reader.
# [5] = tested on: mouse prostate TRAMP-C2 cancer cell line; assay: MTT cytotoxicity assay, TRAMP-C2; format: cell-based; conditions: 0–50 µM, 24 h, MTT assay
# Protocol: as §4
# human glioblastoma U373 = assay: Crystal violet assay, U373; conditions: 0–50 µM, 24 h
# Protocol: as §1
# To determine cell viability by crystal violet assay, cells were seeded in 96-well plates at densities of 3000 (RPE-1), 5000 (U373 and T98-G), and 8000 (U-87 MG) cells per well. The next day the cells were treated with the tested compounds in triplicate in a concentration range as indicated. After 24 h, the cells in each well were washed twice with 150 µl PBS and then stained in 30 µl 0.5% w/v crystal violet in 20% methanol for 15 min. Plates were washed three times with double distilled H2O and left to dry overnight. Crystal violet was solubilised with 75 µl 0.2% Triton X-100 (Sigma, St. Louis, MO) in PBS for 15 min. Absorbance of crystal violet was measured at 595 nm using a microplate reader (Multiskan EX, Thermo Electron Corporation, Waltham, MA). Absorbance of the treated samples was expressed as a percentage of absorbance of untreated cells.
compound,measurement,setting,value
"Cc1ccc(S(=O)(=O)N(C)CC(=O)N(Cc2ccccc2)c2ccc(C(=O)O)c(O)c2)cc1 [Compound 3, 4-(N-(Benzyl)-2-(N-methyl-N-(p-toluenesulfonyl))acetamido)-2-hydroxybenzoic acid]",cytotoxic effect in MDA-MB-231 (in words),[1],lacking any significant cytotoxicity; also recorded: complete loss of cytotoxic activity
"CN(CC(=O)N(Cc1ccccc1)c1ccc(C(=O)O)c(O)c1)S(=O)(=O)c1c(F)c(F)c(F)c(F)c1F [Compound 4, 4-(N-(Benzyl)-2-(2,3,4,5,6-pentafluoro-N-methylphenylsulfonamido)acetamido)-2-hydroxybenzoic acid]",IC50,[2],> 50 µM
same,IC50,RPE-1,> 50 µM
same,IC50,[3],> 50 µM
same,cytotoxic effect in MDA-MB-231 (in words),[1],mild-to-negligible cytotoxicity
same,IC50,"[1]; Homo sapiens, MDA-MB-231, 24 h, read-out: IC50±SD MDA-MB-231",> 50 µM
"Cc1ccc(S(=O)(=O)N(C)CC(=O)N(Cc2ccc(C(C)(C)C)cc2)c2ccc(C(=O)O)c(O)c2)cc1 [Compound 5, 4-(N-(4-tert-Butylbenzyl)-2-(N-methyl-N-(p-toluenesulfonyl))acetamido)-2-hydroxybenzoic acid]",cytotoxic effect in MDA-MB-231 (in words),[1],mild-to-negligible cytotoxicity; also recorded: complete loss of cytotoxic activity
"COc1ccc(CN(C(=O)CN(C)S(=O)(=O)c2c(F)cc(F)cc2F)c2ccc(C(=O)O)c(O)c2)cc1 [Compound 7, 4-(N-(4-Methoxybenzyl)-2-(2,4,6-trifluoro-N-methylphenylsulfonamido)acetamido)-2-hydroxybenzoic acid]",cytotoxic effect in MDA-MB-231 (in words),[1],lacking any significant cytotoxicity; also recorded: complete loss of cytotoxic activity
"COc1ccc(CN(C(=O)CN(C)S(=O)(=O)c2c(F)c(F)c(F)c(F)c2F)c2ccc(C(=O)O)c(O)c2)cc1 [Compound 8, 4-(N-(4-Methoxybenzyl)-2-(2,3,4,5,6-pentafluoro-N-methylphenylsulfonamido)acetamido)-2-hydroxybenzoic acid]",cytotoxic effect in TC-1 (in words),[4],mild cytotoxic effect; also recorded: mild cytotoxicity
same,cytotoxic effect in TRAMP-C2 (in words),[5],mild cytotoxic effect; also recorded: mild cytotoxicity
same,cytotoxic effect in MDA-MB-231 (in words),[1],lacking any significant cytotoxicity; also recorded: no cytotoxic activity
same,cytotoxic activity in U373 (in words),human glioblastoma U373,no cytotoxic activity
"CN(CC(=O)N(Cc1ccc(C(F)(F)F)cc1)c1ccc(C(=O)O)c(O)c1)S(=O)(=O)c1ccccc1 [Compound 9, 4-(N-(4-Trifluoromethylbenzyl)-2-(N-methylphenylsulfonyl)acetamido)-2-hydroxybenzoic acid]",cytotoxic effect in MDA-MB-231 (in words),[1],complete loss of cytotoxic activity
